Consider four molecules from patent US20260167674A1, “ACE2 […] SEQUENCES” (priority 2023, published 2026).

No end group written: not given here.

One assay concerns the target SARS-COV-2 RBD (Severe acute respiratory syndrome coronavirus 2, UniProt P0DTC2). Briefly: biochemical. The format is binding.
For assay [1], the target named is SARS-COV-2 RBD protein with His-tag, purified by recombinant expression in Pichia pastoris (SARS-COV-2), P0DTC2. Briefly: SPR at 25 C; His-tagged RBD captured by anti-His tag, peptide flowed over.

What is called Kd is the concentration at which binding is half-saturated. In turn, “QEQAQTYLDGYNKTYQDLVYKDNLAQWTLNT [peptide2]” registered a Kd on SARS-COV-2 RBD of 3.55 to 4.09 pM.

For “EENAKTFLNNFNQEAEDLSYQSSLASWNYNT [peptide4]”, on SARS-COV-2 RBD, the Kd lay in the range of 1.26 to 8.16 pM.

With QEQAQTYLDGYNKTYQDLVYKDNLAQWTLNT (modifications not checked) [peptide2 (WP_072363071.1:30-60 M2 family metallopeptidase [Chitinophaga sancti])], in assay [1], the Kd lay within 3.55 to 4.09 pM.

As for EENAKTFLNNFNQEAEDLSYQSSLASWNYNT (modifications not checked) [peptide4 (BAB40431.1:22-52 angiotensin-converting enzyme-related carboxypeptidase [Mus musculus])], the Kd in assay [1] was 1.26 to 8.16 pM.
